Experimental data reported in PubChem BioAssay AID449750 (Broad Institute, 2010).
Calls of active or inactive are those of the source. No rule for the calls is given here.

Assay: non-covalent RecA intein splicing inhibitors, dose response, biochemical, cell-free, fluorescence, secondary screen (AID 449750)

| SMILES | AC50 |
| --- | --- |
| COc1ccc(-c2cc(=O)n(CCC#N)[nH]2)cc1 | 3.3 µM |
| CCOC(=O)C1=C(C)NC2(O)c3ccccc3C(=O)C12O (configuration not stated) | 7.53 µM |
| C#CCOc1ccc(OC)cc1C(c1c(C)[nH][nH]c1=O)c1c(C)[nH][nH]c1=O | 17.3 µM |
| COc1ccc(-c2nnc(Sc3nc4ccccc4o3)c3ccccc23)cc1 | 18.8 µM |
| COC(=O)c1cc([N+](=O)[O-])c(-n2ccnc2)c([N+](=O)[O-])c1 | > 38 µM (inactive) |
| Cc1ccc(S(=O)(=O)/N=C2\C=C(Nc3cccc(C(=O)O)c3)C(=O)c3ccccc32)cc1 | 0.412 µM |
| O=C(CCNc1cccc(F)c1)c1cccc([N+](=O)[O-])c1 | > 38 µM (inactive) |
| O=C1CCN(S(=O)(=O)c2ccccc2)N1 | > 38 µM (inactive) |
| CCOC(=O)c1ccc(NC2=CC(=O)C(=O)c3ccccc32)cc1 | > 38 µM (inactive) |
| CCOc1cc(/C=C2\C(=N)N3N=C(S(=O)(=O)CC)SC3=NC2=O)ccc1OC(=O)c1ccco1 | > 38 µM (inactive) |
| COc1ccc(N(C(=O)CCl)C(C(=O)NCCc2ccccc2)c2cccs2)cc1 (configuration not stated) | 0.958 µM |
| COc1ccccc1NC1=C(Cl)C(=O)OC1OC(=O)c1ccco1 (configuration not stated) | > 38 µM (inactive) |
| COc1cc(NC2CCCCC2O)c2nc(-c3ccc(Cl)cc3)ccc2c1 (configuration not stated) | 9.05 µM |
| CN1c2ccccc2C(C)(C)C12C=Nc1c(cc(N3CCOCC3)c3ccccc13)O2 (configuration not stated) | > 38 µM (inactive) |
| CC(=O)N(C1CC(C)C(C#N)(C#N)C1(C#N)C#N)N(C)C (configuration not stated) | > 38 µM (inactive) |
| CC1CCc2c(sc3nc(C(C)(C)C)nc(N4CCN(C(=O)CCl)CC4)c23)C1 (configuration not stated) | 2.61 µM |
| Cc1cc2nc3ccc(=[N+](C)C)cc-3sc2cc1N | 13.1 µM |
| COC(=O)c1ccccc1NC(=S)NC(=O)c1ccc(C)cc1 | > 38 µM (inactive) |
| O=C(O)c1ccc([N+](=O)[O-])c2c1C(=O)c1ccccc1C2=O | > 38 µM (inactive) |
| Cc1onc(-c2ccccc2)c1-c1nc2ccccc2c(=O)o1 | > 38 µM (inactive) |
| CCOC(=O)c1ccc(-n2[nH]c(-c3ccccc3)cc2=O)cc1 | 5.45 µM |
| CN1CCN(C(c2ccc(Cl)cc2)c2cc(Cl)c3cccnc3c2O)CC1 (configuration not stated) | 24.8 µM |
| Cc1nn(C(=O)c2cccnc2)c(C)c1Sc1ccc(Br)cc1 | 24.5 µM |
| COc1ccc2[nH]c3c(Cl)ncnc3c2c1 | > 38 µM (inactive) |

| SMILES | AC50 |
| --- | --- |
| CC(C)(C)c1cnnn1-c1ccc(C(=O)CCl)cc1 | > 38 µM (inactive) |
| O=C1C(Cl)=C(N2CCCCC2)C(=O)N1c1ccccc1Cl | > 38 µM (inactive) |
| CCn1c(Cl)c(C=O)s/c1=N\S(=O)(=O)c1ccccc1 | 2.44 µM |
| CC1=NN(c2ccc(S(=O)(=O)O)cc2C)C(=O)C1 | 6.31 µM |
| CC(C)(C)C1CCc2sc(C(=O)NNC(=O)CCl)cc2C1 (configuration not stated) | 1.94 µM |
| CSc1ccc(C(c2c(C)[nH][nH]c2=O)c2c(C)[nH][nH]c2=O)cc1 | 7.2 µM |
| Cc1cc(=O)n(C2CCS(=O)(=O)C2)[nH]1 (configuration not stated) | 3.63 µM |
| CC1=NNC(=O)C1C(c1ccccc1)C1C(=O)NN=C1C (configuration not stated) | 6.67 µM |
| COc1cc(OC)cc(-c2nnc(Sc3ccc(C=O)cc3[N+](=O)[O-])o2)c1 | 21.3 µM |
| O=[N+]([O-])c1c(NCCCO)cc(SCc2ccco2)c2nonc12 | > 38 µM (inactive) |
| O=C(CCl)Nc1cn(-c2ccccc2)nc1-c1ccccc1 | 7.77 µM |
| Cc1ccc(-c2cc(-c3ccc(C)cc3)[n+](-c3ccc(C(=O)[O-])cc3)c(-c3ccc(C)cc3)c2)cc1 | 37.5 µM |
| CC(C)=CCC/C(C)=C/Cc1c(O)ccc(C(=O)/C=C/c2ccc(O)cc2)c1O | 16.4 µM |
| O=C1COc2ccc(C(=O)CCl)cc2N1 | > 38 µM (inactive) |
| COc1ccccc1NC(=O)CSc1nc2c(sc3ccccc32)c(=O)n1CCN(C)C | > 38 µM (inactive) |
| COc1cccc(C(c2c(C)[nH]n(-c3ccccc3)c2=O)c2c(C)[nH]n(-c3ccccc3)c2=O)c1O | 2.35 µM |
| CC1=NN(c2ccc(C(=O)O)cc2)C(=O)/C1=C\c1ccc(OC(=O)c2cccs2)cc1 | 2.25 µM |
| CCCc1[nH]nc2c1C(c1ccoc1)C(C#N)=C(N)O2 (configuration not stated) | > 38 µM (inactive) |
| COc1ccc(N(C(=O)CCl)C(C(=O)NCCc2ccccc2)c2cccs2)cc1Cl (configuration not stated) | 0.672 µM |
| O=C(CCl)NC(=O)NC12CC3CC(CC(C3)C1)C2 | 13.3 µM |
| Cc1cccc(NC2=C(Cl)C(=O)OC2OC(=O)c2ccco2)c1 (configuration not stated) | > 38 µM (inactive) |
| CC(C)S(=O)(=O)C1=NSC2=NC(=O)/C(=C\c3ccc(OC(=O)c4ccco4)cc3)C(=N)N21 | 30.6 µM |
| O=C(NCc1ccccc1)c1nc(S(=O)(=O)Cc2ccccc2)ncc1Cl | > 38 µM (inactive) |
